According to patent US20230338463A1, “ICD PEPTIDE AND USE THEREOF FOR HAVING CYTOTOXIC ACTIVITY ON CANCER CELLS” (NATIONAL TSING HUA UNIVERSITY, priority 2022, published 2023):
Non-standard residues stand in square brackets, D forms with d. Residues, ends and D or L forms follow the SMILES beside them. 2Nal = N[C@@H](Cc1ccc2ccccc2c1)C(=O)O

What was measured:
MN-11 cells = test: PI/Hoechst 33342 staining, plasma membrane integrity; assay type: cell-based, murine; settings: MN-11, 2× IC50, 2 hrs, data not shown
Method: To examine the membrane-lytic activities of peptides, the PI/Hoechst 33342 staining was performed in this embodiment. The PI dye was used to stain damaged/dead cells, and Hoechst 33342 was used to specifically stain the nuclei of living cells. MN-11 cells were seeded at 50,000 cells/well in a RPMI medium and allowed to adhere for 24 hours. Then the cells were replaced with serum-free RPMI medium, and then treated with 2× IC50 peptides at 37° C. for 2 hrs. DMEM medium without peptide was used as negative control. The PI and Hoechst 33342 were added at a final concentration of 1 µg/ml for 20 mins. The cells were observed using the inverted fluorescent microscope Zeiss equipped with a 40× oil objective lens (Carl Zeiss, Germany). The experiments were repeated three times independently
To examine the membrane-lytic activities of Nal-P-113, Bip-P-113, and Dip-P-113, the DNA binding fluorescent dye Propidium iodide (PI) was used to stain damaged/dead cells, and Hoechst 33342 was used to specifically stain the nuclei of living cells.

[1] = test system: CGNHC9 cells (oral squamous cell carcinoma); settings: human, 24 h
Description: (§1) Three non-small cell lung cancer cell lines (H1975, A549, PC9) and two oral cancer cell lines (CGNHC9, OECM-1) were used in the present invention. H1975 is the non-small cell lung carcinoma tissue, A549 is the adenocarcinomic alveolar basal epithelial cells and PC9 is the non-small cell lung cancer with EGFR mutation. CGNHC9 and OECM-1 cell lines refer to oral squamous cell carcinoma and gingival epidermoid carcinoma respectively. The abovemetioned cell lines were derived from human origin and being cultured in the humidified incubator containing 5% CO2 at 37° C. CGNHC9 cell line was cultured in Dulbecco’s modified Eagle’s medium (GIBCO Life Technologies Corporation, NY, USA) with 10% fetal bovine serum (FBS), 2 mM L-glutamine and 1% penicillin/ streptomycin and Roswell Park Memorial Institute 1640 (RPMI 1640, GIBCO Life Technologies Corporation, NY, USA) medium with 10% fetal bovine serum (FBS), 2 mM L-glutamine and 1% penicillin/ streptomycin was used as the culture medium for the rest of the cell lines.
(§2) The anticancer activity of ICD peptides include, not limited, SEQ ID NO: 1 and its derivative peptides (SEQ ID NO: 2, SEQ ID NO: 3, SEQ ID NO: 4, and SEQ ID NO: 5) was using the 3-(4,5-Dimethyl-2-thiazolyl)-2,5-diphenyl-2H-tetrazolium bromide (MTT, Sigma Aldrich, St. Louis, MO, USA) colorimetric assay for cell viability test. The cells include, not limited, H1975, A549, PC9, CGNHC9, OECM-1, MN-11 and HFW cells/cell lines.
(§3) The cells were seeded in the 96-well plate at 5000 cells/well under the environment of humidified 5% CO2 and the temperature of 37° C. for 24 hours. The medium was removed from the well before the fresh medium containing different concentrations of ICD peptides was added and incubated for 24 hours. Medium with PBS solution was used as control group. All ICD peptides were diluted serially from 100 µM to 0.78 µM in ddH2O before adding in the medium. After 24 hours of ICD peptide treatment, fresh medium with 10% MTT solution (5 mg/mL) was incubated for additional 4 hours in advance of dissolving the formazan crystal in 100 µL DMSO (Dimethyl sulfoxide, Sigma Aldrich) solution. The calculation of cell survival rate was completed by measuring the absorbance at 570 nm using microplate reader (TECAN Sunrise ELISA Reader).
(§4) The cell survival was calculated from the treated cells relative to the control (100% viable cells) using the mean of three independent experiments and expressed as a 50% inhibitory concentration (IC50).
(§5) The percentage of cell viability was calculated using the following formula: […]
(§6) The half inhibition concentration (IC50) is the concentration required by the drug to reach fifty percent inhibition. In one embodiment, the SEQ ID NO: 1 and its derivative peptides (SEQ ID NO:2, SEQ ID NO:3, SEQ ID NO:4, SEQ ID NO: 5) was used for IC50 test via MTT colorimetric assay.

[2] = test system: OECM-1 cells (gingival epidermoid carcinoma); settings: human, 24 h
Description: as §1, §2, §3, §4, §5, §6

[3] = test system: PC9 cells (non-small cell lung cancer with EGFR mutation); settings: human, 24 h
Description: as §1, §2, §3, §4, §5, §6

[4] = test system: MN-11 cells (fibrosarcoma); test: MN-11 fibrosarcoma tumor regression, intratumoral injection; assay type: in vivo
Method: Female C57BL/6 wild-type mice (4–5 weeks old) were obtained from the BioLASCO Taiwan Co., Ltd (Taiwan). All mice were housed in a specific pathogen-free and controlled environment. During the experiments, female mice, weighing 18–24 g each, were kept in groups of 4 to 6 animals per cage under climate-controlled conditions, with 12 h light/dark cycles and an ambient temperature. The mice were housed in an enriched individually ventilated cage system with free access to standard rodent chow and water ad libitum. The animals were anesthetized during the experimental procedures with 2.5% isoflurane gas. The animals were monitored daily and large-tumor-bearing mice were euthanized with isoflurane. All the procedures were conducted according to the regulations of Laboratory Animal Care and Use Committee or Group Setup and Management and the law of Animal Protection. All animal experiments were approved by National Tsing Hua University (approval ID: 110016), and the protocol was approved by Institutional Animal Care and Use Committee.
Pre-cultured MN-11 cells were harvested in a DMEM medium and inoculated total of 5×10^5 cells (mixed equal volume of matrigel) into the right flank of the abdomen in C57BL/6 mice with subcutaneous injection (6 mice/group). Palpable tumors (50-75 mm^3) were intratumorally injected (i.t.) with Nal-P-113 (1 mg/50 µl saline per mouse) for 3 consecutive days. Negative control (tumor only) mice received saline only (sterile H2O with 0.9% NaCl). Tumor size was measured every 2 days using a caliper, and the volume of tumors was calculated using the following formula: Tumor size (mm^3) = 0.5× (width^2×length). Animals were terminated when the tumor exceeded 2000 mm^3. The survival rates of tumor-bearing mice were observed and recorded continuously until all animals were dead. Additionally, the following were implemented as humane endpoints: signs of unacceptable pain, infection, severe ulceration, or surgical complications.
To investigate the therapeutic potential of Nal-P-113 in vivo, MN-11 cells were subcutaneously implanted into C57BL/6 mice. After eight days post-implantation, tumor volumes reached 50-75 mm^3. Then all animals were injected intratumorally (i.t.) with 50 µl of PBS (Negative control; n=5) or […] Nal-P-113 (n=11). […] At the end of the experiments (35 days), 10 out of 11 animals were survived in the treatment group. […] Nal-P-113 treatment appeared to be nontoxic since no there were effects on the body weight and intake of the animals at the end of the experiment (FIG. 9D and FIG. 9E).

Structure (SMILES): CC(=O)N[C@@H](C)C(=O)N[C@@H](CCCCN)C(=O)N[C@@H](CCCNC(=N)N)C(=O)N[C@@H](Cc1ccc2ccccc2c1)C(=O)N[C@@H](Cc1ccc2ccccc2c1)C(=O)NCC(=O)N[C@@H](Cc1ccc(O)cc1)C(=O)N[C@@H](CCCCN)C(=O)N[C@@H](CCCNC(=N)N)C(=O)N[C@@H](CCCCN)C(=O)N[C@@H](Cc1ccccc1)C(=O)N[C@@H](Cc1ccc2ccccc2c1)C(N)=O [SEQ ID NO:3, Ac-AKR Nal Nal GYKRKFNal-NH2] (Ac-AKR[2Nal][2Nal]GYKRKF[2Nal]-NH2)
- plasma membrane integrity (PI entering cells) (MN-11 cells): can cause damage to the plasma membrane integrity
- cell viability percentage [1]: lower than 20%
- cell viability percentage [2]: lower than 20%
- cell viability percentage [3]: lower than 20%
- toxicity (body weight and intake) ([4]; C57BL/6 mice, at the end of the experiment): nontoxic
- animals survived ([4]; end of the experiments (35 days), i.t. Nal-P-113 for 3 consecutive days, n=11): 10 out of 11
- complete regression of the tumor ([4]; treatment group n=11, i.t.): 5 animals
- tumor recurrence ([4]; treatment group n=11, i.t.): 6 animals
